These results are taken from patent US11286242B2 (priority 2018, dated 2022).

Each structure is given as a SMILES string.

The subject of the first test is Pyricularia oryzae. In words: microbe, parasite or virus in culture. In kind it is cell-based. The settings on record: 168 h, read-out: control compared to the untreated check.
In the case of `CS(=O)(=Nc1ccc(-c2noc(C(F)(F)F)n2)cc1F)c1cccc(F)c1` (stereo not drawn) [Compound 169, ((2-fluoro-4-(5-(trifluoromethyl)-1,2,4-oxadiazol-3-yl)phenyl)imino)(3-fluorophenyl)(methyl)-λ^6-sulfanone], the inhibition of growth at 300 ppm is greater than 70%.

Turning to `Cc1ccc(S(C)(=O)=Nc2ccc(-c3noc(C(F)(F)F)n3)cc2)cc1` (stereo not drawn) [Compound 130, methyl(p-tolyl)((4-(5-(trifluoromethyl)-1,2,4-oxadiazol-3-yl)phenyl)imino)-λ^6-sulfanone], the inhibition of growth at 300 ppm is greater than 70%. For the compound `CS(=O)(=Nc1ccc(-c2noc(C(F)(F)F)n2)nc1)c1ccc(C(F)(F)F)cc1` (stereo not drawn) [Compound 124, methyl((6-(5-(trifluoromethyl)-1,2,4-oxadiazol-3-yl)pyridin-3-yl)imino)(4-(trifluoromethyl)phenyl)-λ^6-sulfanone], the inhibition of growth at 300 ppm was greater than 70%. On to `CC(C)S(=O)(=NCc1ccc(-c2noc(C(F)(F)F)n2)cc1)c1ccc(Cl)cc1` (stereo not drawn) [Compound 152, (4-chlorophenyl)(isopropyl)((4-(5-(trifluoromethyl)-1,2,4-oxadiazol-3-yl)benzyl)imino)-λ^6-sulfanone], for which the inhibition of growth at 300 ppm is greater than 70%. In the case of `CS(=O)(=Nc1ccc(-c2noc(C(F)(F)F)n2)cc1)c1ccc(C(F)(F)F)cc1` (stereo not drawn) [Compound 19, methyl((4-(5-(trifluoromethyl)-1,2,4-oxadiazol-3-yl)phenyl)imino)(4-(trifluoromethyl)phenyl)-λ^6-sulfanone], the inhibition of growth at 300 ppm is greater than 70%. For `Cc1cccc(S(C)(=O)=Nc2cccc(-c3noc(C(F)(F)F)n3)c2)c1` (stereo not drawn) [Compound 114, methyl(m-tolyl)((3-(5-(trifluoromethyl)-1,2,4-oxadiazol-3-yl)phenyl)imino)-λ^6-sulfanone], the inhibition of growth at 300 ppm was greater than 70%. Turning to `CS(=O)(=Nc1ccc(-c2noc(C(F)(F)F)n2)cc1F)c1ccc(Cl)cc1` (stereo not drawn) [Compound 167, (4-chlorophenyl)((2-fluoro-4-(5-(trifluoromethyl)-1,2,4-oxadiazol-3-yl)phenyl)imino)(methyl)-λ^6-sulfanone], the inhibition of growth at 300 ppm is greater than 70%.

With `CS(=O)(=NC(=O)c1ccc(-c2noc(C(F)(F)F)n2)cc1)c1ccccc1F` (stereo not drawn) [Compound 3, N-((2-fluorophenyl)(methyl)(oxo)-λ^6-sulfanylidene)-4-(5-(trifluoromethyl)-1,2,4-oxadiazol-3-yl)benzamide], the inhibition of growth at 300 ppm is greater than 70%. Turning to `CS(=O)(=NCc1ccc(F)cc1F)c1ccc(-c2noc(C(F)(F)F)n2)cc1` (stereo not drawn) [Compound 184, ((2,4-difluorobenzyl)imino)(methyl)(4-(5-(trifluoromethyl)-1,2,4-oxadiazol-3-yl)phenyl)-λ^6-sulfanone], the inhibition of growth at 300 ppm was greater than 70%. Turning to `CS(=O)(=Nc1ccc(-c2noc(C(F)(F)F)n2)cc1)c1ccc(F)c(F)c1` (stereo not drawn) [Compound 97, (3,4-difluorophenyl)(methyl)((4-(5-(trifluoromethyl)-1,2,4-oxadiazol-3-yl)phenyl)imino)-λ^6-sulfanone], the inhibition of growth at 300 ppm was greater than 70%. As for `CS(=O)(=NCc1cccc(-c2noc(C(F)(F)F)n2)c1)c1ccc(F)cc1` (stereo not drawn) [Compound 145, (4-fluorophenyl)(methyl)((3-(5-(trifluoromethyl)-1,2,4-oxadiazol-3-yl)benzyl)imino)-λ^6-sulfanone], the inhibition of growth at 300 ppm is greater than 70%. As for `CS(=O)(=NCc1cccc(-c2noc(C(F)(F)F)n2)c1)c1ccc(Cl)cc1` (stereo not drawn) [Compound 143, (4-chlorophenyl)(methyl)((3-(5-(trifluoromethyl)-1,2,4-oxadiazol-3-yl)benzyl)imino)-λ^6-sulfanone], the inhibition of growth at 300 ppm is greater than 70%. As for `COc1cccc(S(C)(=O)=Nc2ccc(-c3noc(C(F)(F)F)n3)nc2)c1` (stereo not drawn) [Compound 127, (3-methoxyphenyl)(methyl)((6-(5-(trifluoromethyl)-1,2,4-oxadiazol-3-yl)pyridin-3-yl)imino)-λ^6-sulfanone], the inhibition of growth at 300 ppm was greater than 70%.

Regarding `CC(C)S(=O)(=NCc1ccc(-c2noc(C(F)(F)F)n2)cc1)c1ccccc1` (stereo not drawn) [Compound 151, isopropyl(phenyl)((4-(5-(trifluoromethyl)-1,2,4-oxadiazol-3-yl)benzyl)imino)-λ^6-sulfanone], the inhibition of growth at 300 ppm was greater than 70%. As for `CS(=O)(=NCc1cccc(Cl)c1)c1ccc(-c2noc(C(F)(F)F)n2)cc1` (stereo not drawn) [Compound 182, ((3-chlorobenzyl)imino)(methyl)(4-(5-(trifluoromethyl)-1,2,4-oxadiazol-3-yl)phenyl)-λ^6-sulfanone], the inhibition of growth at 300 ppm is greater than 70%. Consider `CS(=O)(=NCc1cccc(-c2noc(C(F)(F)F)n2)c1)c1cc(F)ccc1Br` (stereo not drawn) [Compound 146, (2-bromo-5-fluorophenyl)(methyl)((3-(5-(trifluoromethyl)-1,2,4-oxadiazol-3-yl)benzyl)imino)-λ^6-sulfanone], for which the inhibition of growth at 300 ppm is greater than 70%. In the case of `CS(=O)(=NCc1cccc(F)c1)c1ccc(-c2noc(C(F)(F)F)n2)cc1` (stereo not drawn) [Compound 185, ((3-fluorobenzyl)imino)(methyl)(4-(5-(trifluoromethyl)-1,2,4-oxadiazol-3-yl)phenyl)-λ^6-sulfanone], the inhibition of growth at 300 ppm was greater than 70%. In the case of `COc1ccc(S(C)(=O)=Nc2ccc(-c3noc(C(F)(F)F)n3)cc2F)cc1` (stereo not drawn) [Compound 171, ((2-fluoro-4-(5-(trifluoromethyl)-1,2,4-oxadiazol-3-yl)phenyl)imino)(4-methoxyphenyl)(methyl)-λ^6-sulfanone], the inhibition of growth at 300 ppm was greater than 70%.

For the compound `CS(=O)(=NCc1ccc(-c2noc(C(F)(F)F)n2)cc1)c1ccccn1` (stereo not drawn) [Compound 27, methyl(pyridin-2-yl)((4-(5-(trifluoromethyl)-1,2,4-oxadiazol-3-yl)benzyl)imino)-λ^6-sulfanone], the inhibition of growth at 300 ppm is greater than 70%. `CS(=O)(=NCc1ccc(-c2noc(C(F)(F)F)n2)cc1)c1ccccc1F` (stereo not drawn) [Compound 29, (2-fluorophenyl)(methyl)((4-(5-(trifluoromethyl)-1,2,4-oxadiazol-3-yl)benzyl)imino)-λ^6-sulfanone]: the inhibition of growth at 300 ppm was greater than 70%. Regarding `CS(=O)(=NCc1cccc(-c2noc(C(F)(F)F)n2)c1)c1ccc(F)c(F)c1` (stereo not drawn) [Compound 141, (3,4-difluorophenyl)(methyl)((3-(5-(trifluoromethyl)-1,2,4-oxadiazol-3-yl)benzyl)imino)-sulfanone], the inhibition of growth at 300 ppm is greater than 70%. As for `CS(=O)(=Nc1ccc(-c2noc(C(F)(F)F)n2)cc1F)c1ccccc1F` (stereo not drawn) [Compound 165, ((2-fluoro-4-(5-(trifluoromethyl)-1,2,4-oxadiazol-3-yl)phenyl)imino)(2-fluorophenyl)(methyl)-λ^6-sulfanone], the inhibition of growth at 300 ppm is greater than 70%. As to `CS(=O)(=NCc1cccc(-c2noc(C(F)(F)F)n2)c1)c1nccs1` (stereo not drawn) [Compound 144, methyl(thiazol-2-yl)((3-(5-(trifluoromethyl)-1,2,4-oxadiazol-3-yl)benzyl)imino)-λ^6-sulfanone], the inhibition of growth at 300 ppm is greater than 70%. As to `O=S1(=NCc2cccc(-c3noc(C(F)(F)F)n3)c2)CCOCC1` [Compound 149, 4-((3-(5-(trifluoromethyl)-1,2,4-oxadiazol-3-yl)benzyl)imino)-1,4λ^6-oxathiane 4-oxide], the inhibition of growth at 300 ppm was greater than 70%.

For the compound `CS(=O)(=NCc1cccc(-c2noc(C(F)(F)F)n2)c1)c1ccc(Br)cc1F` (stereo not drawn) [Compound 147, (4-bromo-2-fluorophenyl)(methyl)((3-(5-(trifluoromethyl)-1,2,4-oxadiazol-3-yl)benzyl)imino)-λ^6-sulfanone], the inhibition of growth at 300 ppm was greater than 70%. Take `CS(=O)(=Nc1ccc(-c2noc(C(F)(F)F)n2)cc1F)c1ccccc1` (stereo not drawn) [Compound 166, ((2-fluoro-4-(5-(trifluoromethyl)-1,2,4-oxadiazol-3-yl)phenyl)imino)(methyl)(phenyl)-λ^6-sulfanone]: the inhibition of growth at 300 ppm was greater than 70%. In the case of `COc1cccc(S(C)(=O)=Nc2ccc(-c3noc(C(F)(F)F)n3)cc2)c1` (stereo not drawn) [Compound 106, (3-methoxyphenyl)(methyl)((4-(5-(trifluoromethyl)-1,2,4-oxadiazol-3-yl)phenyl)imino)-λ^6-sulfanone], the inhibition of growth at 300 ppm was greater than 70%. Turning to `CS(=O)(=NCc1ccc(F)cc1)c1ccc(-c2noc(C(F)(F)F)n2)cc1` (stereo not drawn) [Compound 183], the inhibition of growth at 300 ppm is greater than 70%.

The subject of a further test is Alternaria solani. In words: Alternaria solani (early blight of tomato/potato) radial mycelial growth on Potato Dextrose Agar. The test is classed as cell-based. The settings on record: 168 h, Potato Dextrose Agar, 25° C., 60% relative humidity, seven days, read-out: control compared to the untreated check. On the procedure: Example 4: Alternaria solani (Early Blight of Tomato/Potato)
Compounds were dissolved in 0.3% DMSO & then added to Potato Dextrose Agar medium just prior to dispensing it into petri dishes. 5 mL medium with compound in the desired concentration was dispensed into 60 mm sterile petri-plates. After solidification each plate was seeded with 5 mm size mycelial disc taken form periphery of actively growing virulent culture plate. Plates were incubated in growth chambers at 25° C. temperature and 60% relative humidity for seven days and radial growth was measured.
For the compound `CS(=O)(Cc1cccc(F)c1F)=NC(=O)c1ccc(-c2noc(C(F)(F)F)n2)cc1` (stereo not drawn) [Compound 33, N-((2,3-difluorobenzyl)(methyl)(oxo)-λ^6-sulfaneylidene)-4-(5-(trifluoromethyl)-1,2,4-oxadiazol-3-yl)benzamide], the inhibition of growth at 300 ppm is greater than 70%.

With `CS(=O)(=NC(=O)c1cccc(-c2noc(C(F)(F)F)n2)c1)c1nccs1` (stereo not drawn) [Compound 73, N-(methyl(oxo)(thiazol-2-yl)-λ^6-sulfaneylidene)-3-(5-(trifluoromethyl)-1,2,4-oxadiazol-3-yl)benzamide], the inhibition of growth at 300 ppm is greater than 70%.

A further test concerns Phakopsora pachyrhizi. In words: Phakopsora pachyrhizi test in soybean, preventive spray. The test is classed as in vivo. The settings on record: preventive spray on soybean plants, inoculated one day after treatment, greenhouse 25° C., 90% relative humidity, read-out: control (efficacy, disease severity rating) compared to the untreated check. On the procedure: Example 8: Phakopsora pachyrhizi Test in Soybean
Compounds were dissolved in 2% DMSO/Acetone & then mixed with water to the calibrated spray volume of 50 mL and poured into the spray bottles for further applications.
To test the preventive activity of compounds, healthy young soybean plants raised in the greenhouse were sprayed with active compound preparation at the stated application rates inside the spray cabinets using hallowcone nozzles. One day after treatment, the plants were inoculated with spore suspension containing 2.1×10^6 Phakopsora pachyrhizi inoculum. The inoculated plants were then kept in greenhouse chamber at 25° C. temperature & 90% relative humidity for disease expression.
A visual assessment of compound's performance was carried out by rating the disease severity (0-100% scale) on treated plants on 3, 7, 10 & 15 days after application. Efficacy (% control) of the compounds was calculated by comparing the disease rating in the treatment with the one of the untreated control. The sprayed plants were also assessed for compound's plant compatibility by recording symptoms like necrosis, chlorosis & stunting.
For the compound `CS(=O)(=Nc1ccc(-c2noc(C(F)(F)F)n2)cc1)c1ccc(C(F)(F)F)cc1` (stereo not drawn) [Compound 19, methyl((4-(5-(trifluoromethyl)-1,2,4-oxadiazol-3-yl)phenyl)imino)(4-(trifluoromethyl)phenyl)-λ^6-sulfanone], the pest or weed control at 500 ppm was greater than 90%. Still for that read-out and setting: as for `CS(=O)(=NC(=O)c1ccc(-c2noc(C(F)(F)F)n2)cc1)c1ccccc1F` (stereo not drawn) [Compound 3, N-((2-fluorophenyl)(methyl)(oxo)-λ^6-sulfanylidene)-4-(5-(trifluoromethyl)-1,2,4-oxadiazol-3-yl)benzamide], the figure is greater than 90%; as for `CS(=O)(=NCc1ccc(-c2noc(C(F)(F)F)n2)cc1)c1ccccn1` (stereo not drawn) [Compound 27, methyl(pyridin-2-yl)((4-(5-(trifluoromethyl)-1,2,4-oxadiazol-3-yl)benzyl)imino)-λ^6-sulfanone], greater than 90%.
